Measured values published in patent US11866430B2, “Naphthyridinone compounds useful as T cell activators” (priority 2018, dated 2024).

Key:
human DGKζ [1] = target: T1, human DGKζ (Homo sapiens (Human), UniProt Q13574); test: DGKζ LIPGLO assay (extruded liposome substrate); type: biochemical; details: extruded liposome substrate; read-out: DGKζ LIPGLO IC50
How it was run: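 Sf9-derived DGKζ was premixed 10 min with PC/DAG/PS liposomes (100 nm extruded) in MOPS pH 7.5 buffer containing NaCl, MgCl2, CaCl2 and DTT.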

human DGKα = human DGKα (Homo sapiens (Human), UniProt P23743); test: biochemical; details: detergent/lipid micelle substrate; read-out: DGKα IC50
human DGKα, sequence (P23743 other isoform, or with tags, fused parts or gaps): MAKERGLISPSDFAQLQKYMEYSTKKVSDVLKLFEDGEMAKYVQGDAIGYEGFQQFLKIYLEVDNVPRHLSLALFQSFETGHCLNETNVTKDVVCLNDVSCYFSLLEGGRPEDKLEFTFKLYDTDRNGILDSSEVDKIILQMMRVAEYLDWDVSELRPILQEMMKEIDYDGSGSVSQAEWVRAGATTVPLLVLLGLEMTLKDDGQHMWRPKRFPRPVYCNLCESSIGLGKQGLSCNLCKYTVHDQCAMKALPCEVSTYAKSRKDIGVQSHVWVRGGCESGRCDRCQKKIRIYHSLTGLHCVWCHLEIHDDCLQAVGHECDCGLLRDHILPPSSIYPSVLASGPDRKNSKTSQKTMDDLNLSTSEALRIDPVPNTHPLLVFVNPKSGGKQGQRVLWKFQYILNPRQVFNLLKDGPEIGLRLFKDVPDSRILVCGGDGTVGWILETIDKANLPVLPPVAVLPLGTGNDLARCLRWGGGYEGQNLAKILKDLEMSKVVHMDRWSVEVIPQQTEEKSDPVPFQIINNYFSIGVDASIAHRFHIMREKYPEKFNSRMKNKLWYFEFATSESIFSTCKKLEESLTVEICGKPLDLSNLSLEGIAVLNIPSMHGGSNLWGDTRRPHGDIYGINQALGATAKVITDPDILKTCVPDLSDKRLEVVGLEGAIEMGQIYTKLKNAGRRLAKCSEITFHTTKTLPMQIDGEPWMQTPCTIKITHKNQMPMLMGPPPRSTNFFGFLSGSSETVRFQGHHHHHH
How it was run: (§1)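 Enzymes were baculovirus/Sf9 full-length human DGKα or DGKζ with His tag. The substrate was PS/DAG in octyl glucoside micelles, in MOPS pH 7.5 buffer with NaCl, MgCl2, CaCl2 and DTT.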

human DGKζ [2] = target: T1, human DGKζ; test: DGKζ assay (detergent/lipid micelle substrate); type: biochemical; details: detergent/lipid micelle substrate; read-out: DGKζ IC50
How it was run: as §1

T1 sequence (Q13574 other isoform, or with tags, fused parts or gaps): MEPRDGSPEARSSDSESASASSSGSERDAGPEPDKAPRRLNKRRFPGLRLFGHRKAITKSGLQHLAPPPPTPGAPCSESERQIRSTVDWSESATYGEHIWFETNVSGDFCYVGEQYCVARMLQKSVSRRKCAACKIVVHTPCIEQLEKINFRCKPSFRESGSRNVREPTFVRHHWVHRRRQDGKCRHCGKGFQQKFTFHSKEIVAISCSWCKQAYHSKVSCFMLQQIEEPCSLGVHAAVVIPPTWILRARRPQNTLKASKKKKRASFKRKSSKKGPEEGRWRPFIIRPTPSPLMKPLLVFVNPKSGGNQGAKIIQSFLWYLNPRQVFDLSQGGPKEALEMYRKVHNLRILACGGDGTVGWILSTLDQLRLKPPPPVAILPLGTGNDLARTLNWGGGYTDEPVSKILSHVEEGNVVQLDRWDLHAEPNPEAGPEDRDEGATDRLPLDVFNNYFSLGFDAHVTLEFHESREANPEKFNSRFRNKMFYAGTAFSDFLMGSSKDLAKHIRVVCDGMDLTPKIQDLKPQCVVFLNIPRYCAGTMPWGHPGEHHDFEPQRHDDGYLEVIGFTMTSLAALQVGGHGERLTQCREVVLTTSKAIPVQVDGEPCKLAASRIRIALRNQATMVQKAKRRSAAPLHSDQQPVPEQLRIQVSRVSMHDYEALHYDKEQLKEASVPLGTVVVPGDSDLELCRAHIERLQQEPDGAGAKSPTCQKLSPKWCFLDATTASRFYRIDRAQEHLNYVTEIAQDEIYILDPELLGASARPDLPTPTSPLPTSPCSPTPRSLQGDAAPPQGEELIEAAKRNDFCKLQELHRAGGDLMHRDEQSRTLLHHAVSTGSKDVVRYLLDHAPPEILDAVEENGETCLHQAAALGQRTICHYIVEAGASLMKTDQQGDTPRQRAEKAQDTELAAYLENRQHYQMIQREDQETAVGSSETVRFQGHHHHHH

SMILES	IC50 (human DGKζ [1]) [µM]	IC50 (human DGKα) [nM]	IC50 (human DGKζ [2]) [µM]
Cc1ccc2c(n1)c(N1CCN(C(C)c3ccc(F)cc3)CC1)c(Br)c(=O)n2C (stereo not drawn) [Example 224, 3-bromo-4-(4-(1-(4-fluorophenyl)ethyl)piperazin-1-yl)-1,6-dimethyl-1,5-naphthyridin-2(1H)-one]	20	540	> 240
Cc1ccc(CN2CCN(c3c(C#N)c(=O)n(C)c4ccc(Br)nc34)CC2)c(O)c1 [Example 372, 6-bromo-4-{4-[(2-hydroxy-4-methylphenyl)methyl]piperazin-1-yl}-1-methyl-2-oxo-1,2-dihydro-1,5-naphthyridine-3-carbonitrile]	8.8	33	60
Cc1ccc(CN2CCN(c3c(C#N)c(=O)n(C)c4ccc(Cl)nc34)CC2)cc1 [Example 386, 6-chloro-1-methyl-4-{4-[(4-methylphenyl)methyl]piperazin-1-yl}-2-oxo-1,2-dihydro-1,5-naphthyridine-3-carbonitrile]	6.7	150	190
Cc1ccc2c(n1)c(N1CCN(Cc3cccc(Cl)c3O)CC1)c(C#N)c(=O)n2C [Example 389, 4-{4-[(3-chloro-2-hydroxyphenyl)methyl]piperazin-1-yl}-1,6-dimethyl-2-oxo-1,2-dihydro-1,5-naphthyridine-3-carbonitrile]	9.4	850	130
Cc1cccc(CN2CCN(c3c(C#N)c(=O)n(C)c4ccc(Cl)nc34)CC2)c1O [Example 391, 6-chloro-4-{4-[(2-hydroxy-3-methylphenyl)methyl]piperazin-1-yl}-1-methyl-2-oxo-1,2-dihydro-1,5-naphthyridine-3-carbonitrile]	2.1	260	36
Cc1ccc(CN2CCN(c3c(C#N)c(=O)n(C)c4ccc(Cl)nc34)CC2)c(F)c1 [Example 423, 6-chloro-4-{4-[(2-fluoro-4-methylphenyl)methyl]piperazin-1-yl}-1-methyl-2-oxo-1,2-dihydro-1,5-naphthyridine-3-carbonitrile]	33	1400	> 81
COc1cc(C#N)ccc1CN1CCN(c2c(C#N)c(=O)n(C)c3ccc(Cl)nc23)CC1 [Example 424, 6-chloro-4-{4-[(4-cyano-2-methoxyphenyl)methyl]piperazin-1-yl}-1-methyl-2-oxo-1,2-dihydro-1,5-naphthyridine-3-carbonitrile]	27	770	> 240
Cn1c(=O)c(C#N)c(N2CCN(C(C)(C)c3ccc(F)cc3)CC2)c2nc(Cl)ccc21 [Example 425, 6-chloro-4-{4-[2-(4-fluorophenyl)propan-2-yl]piperazin-1-yl}-1-methyl-2-oxo-1,2-dihydro-1,5-naphthyridine-3-carbonitrile]	> 240	1800	> 240
